Data on three compounds can be found in article PMC8241045, “Improving anti-tumor activity of sorafenib tosylate by lipid- and polymer-coated nanomatrix” (Drug Delivery, 2017).

The term solubility denotes the dissolved amount per volume that the medium holds. Usually LogP stands for the decadic logarithm of the partition coefficient of the neutral form, usually between octanol and water. By IC50 is commonly meant the concentration needed to halve the response being measured. Higher therefore signals lower potency.

Data set [1] can be described thus: Solubility in distilled water (shake-flask, HPLC). It is filed as physicochemical. To be noted: 37 °C, thermodynamic from solid.
For data set [2] the following is noted: cited from earlier work.
The conditions of data set [3]: very low aqueous solubility in GI fluids, high permeability; cited from earlier work.
The test system of a further data set is MDA-MB-231 cells. Nature of the data set: In vitro cytotoxicity, sulforhodamine B assay. The class given is cell-based. To be noted: Homo sapiens, 48 h, SRB assay, n = 3. The protocol: The cytotoxicity of MSNM@SFN against MDA-MB-231 cells was measured by sulforhodamine B assay (SRB assay). Briefly, MDA-MB-231 cells (1 × 10^4 cells per well) were seeded in a 96-well plate and grown in medium for 24 h. Then, the cells were treated with cell culture medium containing the different amounts of MSNM@SFN for 48 h at 37 °C. The cell viability was determined by SRB assay. Absorbance was measured at 540 nm using a 96-well plate reader (model 680; Bio-Rad Laboratories, Hercules, CA). The survival percentages were calculated using the formula: survival % = (A540 nm for the treated cells/A540 nm for the control cells) × 100%, where A540 nm is the absorbance value. Each assay was carried out in triplicate. Finally, dose–effect curves were constructed and IC50 values were calculated.
(The SRB assay estimates cell density from bound dye.)

Values after ≈ are worked out from the molar mass of the structure shown. Counter-ions that a name gives are not always drawn. Like-named read-outs stand apart in the source and are kept apart here. Where only a bound is given, the exact number is not on record here.

As to `CCc1c2c(nc3ccc(O)cc13)-c1cc3c(c(=O)n1C2)COC(=O)[C@]3(O)CC` [SN38, 7-ethyl-10-hydroxycamptothecin], in data set [1] (water, read-out: Solubility of SN38), the solubility at 48 h is less than 0.01 µg/mL.
Take `CC(=O)O[C@H]1C(=O)[C@@]2(C)[C@H]([C@H](OC(=O)c3ccccc3)[C@]3(O)C[C@H](OC(=O)[C@H](O)[C@@H](NC(=O)c4ccccc4)c4ccccc4)C(C)=C1C3(C)C)[C@]1(OC(C)=O)CO[C@@H]1C[C@@H]2O` [PTX, paclitaxel]: the solubility at 48 h in data set [1] (water, read-out: Solubility of PTX) came to 0.17 ± 0.02 µg/mL (≈ 0.199 µM).
Turning to `CNC(=O)c1cc(Oc2ccc(NC(=O)Nc3ccc(Cl)c(C(F)(F)F)c3)cc2)ccn1` [SFN, Sorafenib tosylate], the lipophilicity (LogP) in data set [2] is given as 3.8. The BCS class entry in data set [3] is listed as “BCS II”. In data set [1] (48 h, read-out: Solubility of SFN), the solubility at 48 h was less than 0.1 µg/mL. Further, in the data set on MDA-MB-231 cells, the IC50 was found to be 5.84 ± 0.17 µM.
